Assay [1] deals with Cama-1 cells. The assay is described as follows: Apoptosis by annexin V staining and flow cytometry. It counts as cell-based, human. How it is done: Cell recovery after treatment with TLR ligands was measured by crystal violet staining (Sigma-Aldrich). Cells were plated at 10^4 cells/well in 96 well plates. After 72 hours of culture either with or without TLR ligand, the cells were washed with PBS, fixed in 6% formaldehyde (Sigma-Aldrich) for 20 minutes, washed twice, and then stained with 0.1% crystal violet for 10 minutes. After washes and incubation in 1% SDS for 1 hour, the absorbance was read at 605 nm on a Vmax plate reader (Molecular Devices, Sunnyvale, Calif.). Annexin V staining was performed with an annexin-FITC apoptosis detection kit (BD Pharmingen, San Diego, Calif.) according to the manufacturer's instructions. Sub-diploid cells were detected by staining with 3 μg/mL propidium iodide (PI) (Molecular probes, Eugene, Oreg.), after overnight permeabilization in 70% ethanol. Fluorescence was analyzed by flow cytometry on a FACScalibur (Becton Dickinson, Mountain View, Calif.) equipped with a doublet-discrimination module and using Celiquest Pro software (Becton Dickinson).
Cama-1 cells were plated in 6 well plates at 3×10^5 cells per well. After overnight adherence, siRNA transfections were performed for 5 hours in OptiMEM medium (Life technologies) containing 3 μg/mL lipofectamine 2000 (Invivogen) and 100 nM siRNA. Cells were then washed and cultured for 72 hours in complete medium before treatment with Poly IC and apoptosis analysis. siRNA duplexes specific for TLR3, PKR, IRAK-4, TRAF6 and p65 were purchased from Dharmacon (Lafayette, Colo.) as SMART-Pools. TRIF siRNA was purchased from the same supplier as single oligoduplexes (5′-GCUCUUGUAUCUGMGCAC-3′) (SEQ ID NO: 23). TLR3 and TRIF expression was assessed by PCR (35 cycles: 1 min 94° C., 1 min 55° C., 2 min 72° C.) with Taq PCR ReadyMix (Sigma-Aldrich) using following primers: […]
To further investigate the effect of Poly IC treatment on breast tumor cell lines, cell death was analyzed in Cama-1 cells by annexin V staining. Cells were cultured for 24 hours either with or without 5 μg/ml of Poly IC. Apoptosis was measured by annexin V staining and flow cytometry.
We also tried to determine the kinetics of Poly IC induced apoptosis. Cama-1 cells were cultured either with or without 5 μg/ml or 50 ng/ml of Poly IC. The percentage of apoptotic (annexin positive) cells in the culture were measured during the following 30 hours. […] Specifically, Poly IC triggered apoptosis in Cama-1 cells beginning 9 hours after Poly IC addition and reaching up to 80% apoptotic cells after 30 hours of treatment.
Poly AU was analyzed for its effects on apoptosis. Cama-1 cells were cultured for 48 hours either with PBS or with increasing concentrations of Poly AU ranging from 5 ng/ml to 50 μg/ml. Apoptosis was analyzed by measuring the percentage of annexin V positive cells.
In order to determine the pathway of Poly IC induced Cama-1 cell toxicity, RNA interference was used to efficiently downregulate expression of TRIF and PKR. Cama-1 cells were plated in 6 well plates at 3×10^5 cells per well. After overnight adherence, siRNA transfections were performed for 5 hours in OptiMEM medium (Life technologies) containing 3 μg/mL lipofectamine 2000 (Invivogen) and 100 nM siRNA. Cells were transfected with either MOCK (water), control scrambled duplex (scr) siRNA, TRIF siRNA or PKR siRNA.
72 hours after siRNA transfection, Cama-1 cells were cultured for another 24 hours either with or without 5 μg/ml Poly IC. Apoptosis was measured by annexin V staining and expressed as a percentage of apoptotic cells in culture. On average, 10% of control cells (MOCK and scr) that were untreated underwent apoptosis. In contrast, about 75% of control cells (MOCK and scr) that were treated with Poly IC underwent apoptosis.
To further investigate TLR3 mediated cytotoxicity, the involvement of the signaling molecules IRAK4 and TRAF6, both downstream mediators of TLR signaling, were assessed. Cama-1 cells were plated in 6 well plates at 3×10^5 cells per well. […]
Background: In flow cytometry, cells or beads pass a laser one at a time.

Assay [2] concerns Caspase 3. The experiment in a line: Western Blot for Caspase 3 in Cama-1 cells. The format is cell-based, human. The settings on record: Poly IC treatment. As to the method:
(§1) Cama-1 cells were lysed in 1% Nonidet-P40-containing buffer. 20 μg total protein was loaded per lane on SDS-Polyacrylamide gels (Invitrogen). Western Blots (WB) were performed with standard techniques using the antibodies described above. Anti IRAK-4 monoclonal antibodies were generated in the laboratory according to the protocol described in Fossiez et al., “T cell interleukin-17 induces stromal cells to produce proinflammatory and hematopoietic cytokines”, J. Exp. Med., vol. 183(6), pp. 2593-2603 (1996).
We next addressed the role of caspases in apoptosis. Cama-1 cells were pre-incubated with 25 μM of the general caspase inhibitor z-VAD-fmk or DMSO for 1 hour before culture for 24 hours with or without 5 μg/ml Poly IC or 25 ng/ml TNF-α (used as a positive control). Apoptosis was measured by annexin V staining and expressed as a percentage of apoptotic cell in the culture.
In another experiment, lysates from cells obtained above were analyzed by Western Blot for cleavage of PARP, Caspase 3 and Caspase 8.
(Immunoblotting shows a protein as a band on a membrane.)

In assay [3] the test system is eye tumors. The experiment in a line: Eye tumor development in TRP-Tag/IFNαβγR−/− mice. It counts as in vivo, mouse. The settings on record: 100 μg/dose intravenous on days 21, 23, 25, 27 and 29. As to the method:
We analyzed the effect of IFN on Poly IC induced apoptosis in vivo. TRP-Tag mice express SV40 T antigen in the retinal pigmented epithelium and typically develop eye tumors with complete penetrance within weeks from birth.
In these experiments, fourteen to sixteen TRP-Tag/IFNαβγR−/− mice per experiment (these are TPR-Tag mice that had been crossed to mice simultaneously deficient in the receptor for type I interferons (IFNαβR) and the receptor for type II interferon (IFNγR)) were treated on days 21, 23, 25, 27 and 29 by intravenous injections of either Poly IC (100 μg/dose) or PBS. The kinetics of visible eye tumor development was monitored 2-3 times per week.

Assay [4] deals with IFN-β. The assay is described as follows: Western Blot of Cama-1 cell lysate for IFN-β. It counts as cell-based, human. The settings on record: 5 μg/ml Poly IC, 0 to 24 hours. How it is done:
as §1
The involvement of type 1 interferon in TLR3 mediated apoptosis was evaluated. Cama-1 cells were incubated with 5 μg/ml Poly IC for either 0 hours, 1 hour, 6 hours, 18 hours or 24 hours. The presence of IFN-β, phosphorylated Stat1 (tyrosine 701) (P-Stat-1) and total Stat-1 in the cell lysate were analyzed by Western Blot.

For the substance “polyinosinic-polycytidylic acid [Poly IC]”, the “apoptotic (annexin positive) cells after 30 hours” value in assay [1] (Cama-1, 5 μg/ml or 50 ng/ml Poly IC, untreated 15%) was 80%. Moreover, the “percentage of apoptotic cells” value was determined as 30% in assay [1] (Cama-1, 25 μM z-VAD-fmk pre-incubation 1 h, 24 h, 5 μg/ml Poly IC or 25 ng/ml TNF-α); 70% in assay [1] (Cama-1, DMSO pre-incubation 1 h, 24 h, 5 μg/ml Poly IC or 25 ng/ml TNF-α); 70% in assay [1] (Cama-1, absence of antibody (Example 11), 24 h, 5 μg/ml Poly IC or 1000 U/ml each IFN-α/IFN-β); 70% in assay [1] (Cama-1, absence of antibody (Example 12), 5 μg/ml Poly IC or 25 ng/ml TNF-α); 30% in assay [1] (Cama-1, pre-incubated 1 h with 20 μg/ml anti-IFN R1 mAb, 24 h, 5 μg/ml Poly IC or 1000 U/ml IFN-α/IFN-β); 70% in assay [1] (Cama-1, pre-incubated 1 h with 20 μg/ml isotype control mouse IgG1, 24 h, 5 μg/ml Poly IC or 1000 U/ml IFN-α/IFN-β). Moreover, the “percentage of apoptotic cells” value is recorded as 40% in assay [1] (Cama-1, pre-incubated with 10 μg/ml CHX, 5 μg/ml Poly IC or 25 ng/ml TNF-α, untreated 15%); 65% in assay [1] (Cama-1, pre-incubated with 20 μg/ml neutralizing anti TNF-α mAb, 5 μg/ml Poly IC or 25 ng/ml TNF-α); “about 75%” in assay [1] (Cama-1 control cells (MOCK and scr), 24 h with 5 μg/ml Poly IC, untreated 10%); “about 75%” in assay [1] (Cama-1 control cells (scr), Example 10, 24 h with 5 μg/ml Poly IC, untreated 10%); 20% in assay [1] (Cama-1 scr group, 24 h, Poly IC 50 ng/ml); 70% in assay [1] (Cama-1 scr group, 24 h, Poly IC 5 μg/ml). Besides, the “percentage of apoptotic cells” value in assay [1] (Cama-1 siRNA p65 group, 24 h, Poly IC 50 ng/ml) is reported as 10%; in assay [1] (Cama-1 siRNA p65 group, 24 h, Poly IC 5 μg/ml), 20%. In addition, the “cells stained by Annexin V” value in assay [1] (Cama-1, 24 h, 5 μg/ml Poly IC) is “over 70%”. The “beginning of apoptosis after Poly IC addition” value in assay [1] (Cama-1, kinetics over 30 hours) was 9 h. Further, the “caspase 3 activation” value in assay [2] was “activated”. Also, the “delay of appearance of eye tumors compared to PBS” value in assay [3] is reported as “up to 21 days”. Besides, the IFN-β production result in assay [4] is given as “strongly induced”.

(Values after patent publication US20060147456A1, “Induction of apoptosis in toll-like receptor expressing tumor cells” (priority 2004, published 2006).)
